Data: patent US20260242391A1 (priority 2023, published 2026)

How the values were obtained:
in vitro = conditions: human
HL-60 = HL-60 differentiation potency; assay type: cell-based; conditions: Homo sapiens

SMILES	IC50 (in vitro)	EC50 (HL-60)	IC50 (in vitro; HL-60 cells)
C[C@H]1[C@H](OCc2ccc(-c3nn[nH]n3)cc2)O[C@@H]2O[C@@]3(C)CC[C@H]4[C@H](C)CC[C@@H]1[C@@]24OO3 [Compound 2, 5-(4-((((3R,5aS,6R, 8aS,9R,10R,12R, 12aR)-3,6,9-trimethyldeca-hydro-12H-3,12-epoxy[1,2]dioxepino[4,3-i]isochromen-10-yl)oxy)methyl)phenyl)-2H-tetrazole]	58.5 nM	41.3 nM	–
C[C@H]1[C@H](OCc2ccc(C#N)cc2)O[C@@H]2O[C@@]3(C)CC[C@H]4[C@H](C)CC[C@@H]1[C@@]24OO3 [Compound 7, 4-((((3R,5aS,6R, 8aS,9R,10R,12R, 12aR)-3,6,9-trimethyldeca-hydro-12H-3,12-epoxy[1,2]dioxepino[4,3-i]isochromen-10-yl)oxy)methyl) benzonitrile]	192 nM	54.6 nM	–
C[C@H]1[C@H](NCCC(N)=O)O[C@@H]2O[C@@]3(C)CC[C@H]4[C@H](C)CC[C@@H]1[C@@]24OO3 [Compound 96, 3-(((3R,5aS,6R,8aS, 9R,10R,12R, 12aR)-3,6,9-trimethyldeca-hydro-12H-3,12-epoxy[1,2]dioxepino[4,3-i]isochromen-10-yl)amino) propanamide]	1980 nM	1700 nM	–
C[C@H]1[C@@H](OCC23CCC(C(=O)O)(CC2)CC3)O[C@@H]2O[C@@]3(C)CC[C@H]4[C@H](C)CC[C@@H]1[C@@]24OO3 [Compound 75, 4-((((3R,5aS,6R, 8aS,9R,10S,12R, 12aR)-3,6,9-trimethyldeca-hydro-12H-3,12-epoxy[1,2]dioxepino[4,3-i]isochromen-10-yl)oxy)methyl) bicyclo[2.2.2] octane-1-carboxylic acid]	> 20000 nM	1180 nM	–
C[C@H]1[C@@H](Oc2ccc(O[C@H]3C[C@@H](C(=O)O)C3)cc2)O[C@@H]2O[C@@]3(C)CC[C@H]4[C@H](C)CC[C@@H]1[C@@]24OO3 [Compound 182, (1R,3s)-3-(4-(((3R,5aS,6R,8aS, 9R,10S,12R, 12aR)-3,6,9-trimethyldeca-hydro-12H-3,12-epoxy[1,2]dioxepino[4,3-i]isochromen-10-yl)oxy)phenoxy) cyclobutane-1-carboxylic acid]	–	24.1 nM	1000 nM
C[C@H]1[C@H](N2CCC(C(=O)O)CC2)O[C@@H]2O[C@@]3(C)CC[C@H]4[C@H](C)CC[C@@H]1[C@@]24OO3 [Compound 64, 1-((3R,5aS,6R,8aS, 9R,10R,12R, 12aR)-3,6,9-trimethyldeca-hydro-12H-3,12-epoxy[1,2]dioxepino[4,3-i]isochromen-10-yl)piperidine-4-carboxylic acid]	> 20000 nM	> 20000 nM	–
C[C@H]1[C@H](OCc2ccc(C(=O)O)c(F)c2)O[C@@H]2O[C@@]3(C)CC[C@H]4[C@H](C)CC[C@@H]1[C@@]24OO3 [Compound 39, 2-fluoro-4-((((3R,5aS,6R,8aS, 9R,10R,12R, 12aR)-3,6,9-trimethyldeca-hydro-12H-3,12-epoxy[1,2]dioxepino[4,3-i]isochromen-10-yl)oxy)methyl) benzoic acid]	> 20000 nM	631 nM	–
C[C@H]1[C@@H](OCc2ccc3c(c2)OC(F)(F)O3)O[C@@H]2O[C@@]3(C)CC[C@H]4[C@H](C)CC[C@@H]1[C@@]24OO3 [Compound 1, (3R,5aS,6R,8aS, 9R,10S,12R, 12aR)-10-((2,2-difluorobenzo[d] [1,3]dioxol-5-yl)methoxy)-3,6,9-trimethyldeca-hydro-12H-3,12-epoxy[1,2] dioxepino[4,3-i]isochromene]	10.6 nM	11.1 nM	–
CNS(=O)(=O)CCN[C@@H]1O[C@@H]2O[C@@]3(C)CC[C@H]4[C@H](C)CC[C@@H]([C@H]1C)[C@@]24OO3 [Compound 97, N-methyl-2-(((3R,5aS,6R,8aS, 9R,10R,12R, 12aR)-3,6,9-trimethyldeca-hydro-12H-3,12-epoxy[1,2]dioxepino[4,3-i]isochromen-10-yl)amino)ethane-1-sulfonamide]	2080 nM	2340 nM	–
C[C@H]1[C@@H](OCc2ccc(C(=O)NO)cc2)O[C@@H]2O[C@@]3(C)CC[C@H]4[C@H](C)CC[C@@H]1[C@@]24OO3 [Compound 5, N-hydroxy-4-((((3R,5aS,6R,8aS, 9R,10S,12R, 12aR)-3,6,9-trimethyldeca-hydro-12H-3,12-epoxy[1,2]dioxepino[4,3-i]isochromen-10-yl)oxy)methyl) benzamide]	2880 nM	52.2 nM	–
C[C@H]1[C@H](N2CCC(C(=O)NC3COC3)CC2)O[C@@H]2O[C@@]3(C)CC[C@H]4[C@H](C)CC[C@@H]1[C@@]24OO3 [Compound 60, N-(oxetan-3-yl)-1-((3R,5aS, 6R,8aS,9R,10R, 12R,12aR)-3,6,9-trimethyldeca-hydro-12H-3,12-epoxy[1,2]dioxepino[4,3-i]isochromen-10-yl)piperidine-4-carboxamide]	11800 nM	11200 nM	–
C[C@H]1[C@@H](OCc2ccc(C#N)cc2)O[C@@H]2O[C@@]3(C)CC[C@H]4[C@H](C)CC[C@@H]1[C@@]24OO3 [Compound 19, 4-((((3R,5aS,6R, 8aS,9R,10S,12R, 12aR)-3,6,9-trimethyldeca-hydro-12H-3,12-epoxy[1,2]dioxepino[4,3-i]isochromen-10-yl)oxy)methyl) benzonitrile]	138 nM	104 nM	–
COc1cc(CN[C@@H]2O[C@@H]3O[C@@]4(C)CC[C@H]5[C@H](C)CC[C@@H]([C@H]2C)[C@@]35OO4)ccn1 [Compound 50, (3R,5aS,6R,8aS, 9R,10R,12R, 12aR)-N-((2-methoxypyridin-4-yl)methyl)-3,6,9-trimethyldeca-hydro-12H-3,12-epoxy[1,2] dioxepino[4,3-i] isochromen-10-amine]	4880 nM	2320 nM	–
Cc1cc(CN[C@@H]2O[C@@H]3O[C@@]4(C)CC[C@H]5[C@H](C)CC[C@@H]([C@H]2C)[C@@]35OO4)cc(C)n1 [Compound 37, (3R,5aS,6R,8aS, 9R,10R,12R, 12aR)-N-((2,6-dimethylpyridin-4-yl)methyl)-3,6,9-trimethyldeca-hydro-12H-3,12-epoxy[1,2] dioxepino[4,3-i] isochromen-10-amine]	590 nM	555 nM	–
C[C@H]1[C@H](N[C@@H](C)c2ccc(S(C)(=O)=O)cc2)O[C@@H]2O[C@@]3(C)CC[C@H]4[C@H](C)CC[C@@H]1[C@@]24OO3 [Compound 57, (3R,5aS,6R,8aS, 9R,10R,12R, 12aR)-3,6,9-trimethyl-N-((S)-1-(4-(methyl-sulfonyl)phenyl)ethyl)decahydro-12H-3,12-epoxy[1,2] dioxepino[4,3-i] isochromen-10-amine]	9890 nM	8490 nM	–
CNC(=O)CCN[C@@H]1O[C@@H]2O[C@@]3(C)CC[C@H]4[C@H](C)CC[C@@H]([C@H]1C)[C@@]24OO3 [Compound 95, N-methyl-3-(((3R,5aS,6R,8aS, 9R,10R,12R, 12aR)-3,6,9-trimethyldeca-hydro-12H-3,12-epoxy[1,2]dioxepino[4,3-i]isochromen-10-yl)amino) propanamide]	352 nM	348 nM	–

Continued, in another order:

IC50 (in vitro)	EC50 (HL-60)	SMILES	IC50 (in vitro; HL-60 cells)
40 nM	23.5 nM	C[C@H]1[C@@H](Oc2ccc(-c3ccc(C(=O)O)cc3)cc2)O[C@@H]2O[C@@]3(C)CC[C@H]4[C@H](C)CC[C@@H]1[C@@]24OO3 [Compound 107, 4′-(((3R,5aS,6R,8aS, 9R,10S,12R, 12aR)-3,6,9-trimethyldeca-hydro-12H-3,12-epoxy[1,2]dioxepino[4,3-i]isochromen-10-yl)oxy)-[1,1′-biphenyl]-4-carboxylic acid]	–
270 nM	128 nM	C[C@H]1[C@@H](OCc2ccc(B(O)O)cc2)O[C@@H]2O[C@@]3(C)CC[C@H]4[C@H](C)CC[C@@H]1[C@@]24OO3 [Compound 169, (4-((((3R,5aS,6R,8aS, 9R,10S,12R, 12aR)-3,6,9-trimethyldeca-hydro-12H-3,12-epoxy[1,2]dioxepino[4,3-i]isochromen-10-yl)oxy)methyl)phenyl)boronic acid]	–
540 nM	97.3 nM	C[C@H]1[C@@H](OC[C@H]2CC[C@@H](C(=O)NC(C)(C)C)CC2)O[C@@H]2O[C@@]3(C)CC[C@H]4[C@H](C)CC[C@@H]1[C@@]24OO3 [Compound 153, (1R,4s)-N-(tert-butyl)-4-((((3R,5aS,6R,8aS, 9R,10S,12R, 12aR)-3,6,9-trimethyldeca-hydro-12H-3,12-epoxy[1,2]dioxepino[4,3-i]isochromen-10-yl)oxy)methyl) cyclohexane-1-carboxamide]	–
> 20000 nM	> 20000 nM	C[C@H]1[C@H](OCC(=O)N2C[C@H](F)C[C@H]2C(=O)O)O[C@@H]2O[C@@]3(C)CC[C@H]4[C@H](C)CC[C@@H]1[C@@]24OO3 [Compound 159, (2S,4R)-4-fluoro-1-(2-(((3R,5aS,6R,8aS, 9R,10R,12R, 12aR)-3,6,9-trimethyldeca-hydro-12H-3,12-epoxy[1,2]dioxepino[4,3-i]isochromen-10-yl)oxy)acetyl) pyrrolidine-2-carboxylic acid]	–
270 nM	76.6 nM	C[C@H]1[C@@H](OC[C@H]2CC[C@@H](CO)CC2)O[C@@H]2O[C@@]3(C)CC[C@H]4[C@H](C)CC[C@@H]1[C@@]24OO3 [Compound 156, ((1R,4s)-4-((((3R,5aS,6R, 8aS,9R,10S,12R, 12aR)-3,6,9-trimethyldeca-hydro-12H-3,12-epoxy[1,2]dioxepino[4,3-i]isochromen-10-yl)oxy)methyl)cyclohexyl) methanol]	–
> 20000 nM	225 nM	C[C@H]1[C@@H](OC[C@H]2CCC[C@@H](C(=O)O)C2)O[C@@H]2O[C@@]3(C)CC[C@H]4[C@H](C)CC[C@@H]1[C@@]24OO3 [Compound 135, (1R,3S)-3-((((3R,5aS,6R, 8aS,9R,10S,12R, 12aR)-3,6,9-trimethyldeca-hydro-12H-3,12-epoxy[1,2]dioxepino[4,3-i]isochromen-10-yl)oxy)methyl) cyclohexane-1-carboxylic acid]	–
> 20000 nM	> 20000 nM	C[C@H]1[C@H](N(C)Cc2ccc(C(=O)O)cc2)O[C@@H]2O[C@@]3(C)CC[C@H]4[C@H](C)CC[C@@H]1[C@@]24OO3 [Compound 102, 4-((methyl((3R, 5aS,6R,8aS,9R, 10R,12R,12aR)-3,6,9-trimethyldeca-hydro-12H-3,12-epoxy[1,2]dioxepino[4,3-i]isochromen-10-yl)amino)methyl) benzoic acid]	–
